Test results reported in patent publication US20210045387A1, “COMPOSITIONS AND METHODS TO INHIBIT ARTHROPOD HOST-SEEKING BEHAVIOR” (The Rockefeller University, priority 2019, published 2021).

How the values were obtained:
[1] = tested on: human NPY receptors; assay: Cell-based GCaMP6s assay of human NPY receptor activation; conditions: HEK cells, GCaMP6s readout, FIG. 2
From the text: (§1) The six compounds were screened in vitro against the panel of all 49 known Ae. aegypti peptide receptors from both L3 and L5 genome annotations, as well as human NPY receptors. FIG. 2 illustrates the level of activation of related NPY-like receptors by Ae. aegypti NPYLR7 agonists in a variety of organisms in a cell-based assay. HEK cells were transfected with receptor cDNA, promiscuous Gα subunit, and GCaMP6s. Activation was read out as increase in GFP fluorescence and EC50 values were calculated on a 6 point dose-response curve (FIG. 2). The vertical axis of each box represents NPY-related receptors for each organism: for instance, Ae. aegypti has three receptors that were tested in this assay, while Ae. Albopictus has four. […] Albopictus. The horizontal axis indicates the compound tested. […] Compounds 6, 7, 2, 5, 1, and 9 were also tested.

[2] = tested on: NPY-like receptors in non-human organisms; assay: Cell-based GCaMP6s assay of related NPY-like receptors from a variety of organisms; conditions: HEK cells, GCaMP6s readout, FIG. 2
From the text: as §1

[3] = tested on: Female mosquitoes; assay: Live host assay: blood-feeding on an anesthetized mouse (mark-release-recapture); format: in vivo, Ae. aegypti; conditions: 100 μM in saline fed two days prior
From the text: Females from each feeding group were separately marked with one of three different paint powders using the “shake in a bag” technique (Verhulst et al., 2013), and all three of these groups were pooled and allowed to recover together in a cage. […] Females were scored for powder color to indicate treatment condition and for the presence of fresh blood in the midgut. Similar to the results in host-seeking assays, non-blood-fed and saline-fed females consumed fresh blood at high levels. In contrast, females that had fed on sheep blood two days prior rarely consumed fresh blood. […] (Compound designations shown as circled numbers.)

[4] = tested on: Aedes albopictus NPY-like receptors; assay: Cell-based GCaMP6s assay of Aedes albopictus NPY-like receptors; conditions: FIG. 2
From the text: as §1
(§2) Aedes albopictus host-seeking in a miniport olfactometer two days after feeding the indicated meals (n=6-34, 15-25 females/trial) is shown in FIG. 5. Data are plotted as median with range.

[5] = tested on: Aedes albopictus mosquitoes; assay: Miniport olfactometer host-seeking assay in Aedes albopictus; format: in vivo; conditions: two days after feeding, FIG. 5
From the text: as §2

SMILES	Activation of human NPY receptors [1]	Activation of NPY-like receptors in non-human organisms [2]	Blood-feeding on a live host (anesthetized mouse) ([3]; 15 minutes access to mouse)	Blood-feeding on a live host, NPYLR7 mutants ([3]; NPYLR7 mutant females)	Activation of Aedes albopictus NPY-like receptors in vitro [4]	Suppression of host-seeking in Aedes albopictus, miniport olfactometer [5]
COc1ccc2c(C)nc(NC(=N)N)nc2c1 [Compound 1]	none of these compounds activates any of the human receptors	activate many of the receptors in non-human organisms	very low levels of blood-feeding on a live host	resistant to this effect	–	–
COc1ccc2nc(N)nc(C)c2c1 [Compound 2]	none of these compounds activates any of the human receptors	activate many of the receptors in non-human organisms	–	–	–	–
CCc1nc(NC(=N)N)nc2cc(C)ccc12 [Compound 5]	none of these compounds activates any of the human receptors	activate many of the receptors in non-human organisms	–	–	–	–
CC(C)(C)c1cnc(CSc2cnc(NC(=O)C3CCNCC3)s2)o1 [Compound 6]	none of these compounds activates any of the human receptors	activate many of the receptors in non-human organisms	–	–	activates Aedes albopictus NPY-like receptors in vitro	suppresses host-seeking in Aedes albopictus mosquitoes
COc1ccc(CC2c3cc(OC)c(OC)cc3CC[N+]2(C)CCC(=O)OCCCCCOC(=O)CC[N+]2(C)CCc3cc(OC)c(OC)cc3C2Cc2ccc(OC)c(OC)c2)cc1OC (centres unmarked) [Compound 9]	none of these compounds activates any of the human receptors	activate many of the receptors in non-human organisms	–	–	–	–
